Consider one compound from patent US20020039780A1, “Salicyclic acid inducible genes and promoters” (priority 1998, published 2002).

Test [1] concerns early SA-induced genes identified by differential display. The test is described as follows: Northern analysis of differential display genes in cultured tobacco cells. Type of test: cell-based. As for the experimental part:
FIG. 1. […] Northern analysis of genes identified by differential display. Gel-purified DNA fragments produced by ddPCR were either used directly for random-primed labeling and probing of Northern filters (e.g. C7-1, C6-1, and G9-2) or first subcloned and released by restriction digest. Each lane contains 1 μg of poly(A) mRNA from cultured tobacco cells treated with (1) H2O, 4 hr; (2) 200 μM SA, 4 hr; (3) 71 μM CHX, 5 hr; (4) 71 μM CHX, 5 hr plus 200 μM SA after 1 hr (4 hr total); (5) 20 μM SA, 2 hr; (7) 200 μM SA, 8 hr.
FIG. 4. Specificity of induction among SA analogs and other signalling compounds. Northern analysis of representative differential display genes following treatment of tobacco cells with 100 μM or 1 mM (left and right side of triangles, respectively) of the following chemicals for 2-2.5 hr: salicylic acid (SA, lanes 4 and 5), acetylSA (ASA, lanes 6 and 7), benzoic acid (BA, lanes 8 and 9), 4-hydroxybenzoic (4HBA, lanes 10 and 11), thiamine (thia, lanes 12 and 13), methyljasmonate (MJ, lanes 14 and 15), abscisic acid (ABA, lanes 16 and 17), or 2,4-dichlorophenoxyacetic acid (2,4-D, lanes 18 and 19). Control treatments are H2O (H, lane 1), 1% ethanol (E, solvent concentration in MJ treatments, lane 2), or 1% DMSO (D, solvent concentration in 2,4D treatments, lane 3). Blots were hybridized with ddPCR fragments indicated at right or with the β-ATPase geneas a loading control probe. Autoradiogram exposure times were optimized for each gene. […] Labels on left indicate response class.
(§1) Differential display technology (Liang, P. and Pardee, A. B., Science 257: 967-971, 1992) was used to identify genes activated in the presence of SA, CHX and both. Therefore the absence or presence of SA, induction at 3 timepoints of SA-treatment, 2 different concentrations of SA and the effect of addition of CHX were measured. Seven treatments in total were performed. Treatment of tobacco BY-2 suspension cells and leaves and differential display PCR reactions were performed as described (Horvath and Chua (1996), Plant Mol. Biol. 31, 1061-1072).
The specificity for induction by SA was tested by treating tobacco cells with a range of SA analogs and plant signalling compounds at 0.1 and 1 mM for approximately 2.5 h. […] Several genes, including those for proteinase inhibitors and lipoxygenase (Hildmann, T. et al., Plant Cell 4: 1157-1170, 1992; Melan, M. A. et al., Plant Physiol. 101: 441-450, 1993; Xu, D. et al., Plant Mol. Biol. 22: 573-588, 1993) are known to be under dual regulation by MJ and ABA.

The subject of test [2] is G3-2. Description: Northern analysis of mRNA accumulation in cultured tobacco cells. Type of test: cell-based. As for the experimental part: FIG. 1. Four classes of SA-induced early genes. Northern analysis of genes identified by differential display. Gel-purified DNA fragments produced by ddPCR were either used directly for random-primed labeling and probing of Northern filters (e.g. C7-1, C6-1, and G9-2) or first subcloned and released by restriction digest. Each lane contains 1 μg of poly(A) mRNA from cultured tobacco cells treated with (1) H2O, 4 hr; (2) 200 μM SA, 4 hr; (3) 71 μM CHX, 5 hr; (4) 71 μM CHX, 5 hr plus 200 μM SA after 1 hr (4 hr total); (5) 20 μM SA, 2 hr; (7) 200 μM SA, 8 hr. One blot was sequentially hybridized with the G1-1 fragment and the β-ATPase gene as a loading control probe. response classes (I-IV) are indicated on the left of the autoradiograms.
FIG. 2. Time course of SA-induced gene expression. Northern analysis of representative differential display genes following treatment of cultured tobacco cells with SA for the indicated time (in hours, except lanes 2-4, which refer to 10, 20, and 30 min.). Twenty micrograms of total RNA was loaded per lane. Blots were hybridized with ddPCR fragments indicated at right or with the β-ATPase gene as a loading control probe. Autoradiogram exposure times were optimized for each gene. The signal for C18-1 was enhanced by using the full length cDNA as probe. Labels on left indicate response class.
FIG. 4. Specificity of induction among SA analogs and other signalling compounds. Northern analysis of representative differential display genes following treatment of tobacco cells with 100 μM or 1 mM (left and right side of triangles, respectively) of the following chemicals for 2-2.5 hr: salicylic acid (SA, lanes 4 and 5), acetylSA (ASA, lanes 6 and 7), benzoic acid (BA, lanes 8 and 9), 4-hydroxybenzoic (4HBA, lanes 10 and 11), thiamine (thia, lanes 12 and 13), methyljasmonate (MJ, lanes 14 and 15), abscisic acid (ABA, lanes 16 and 17), or 2,4-dichlorophenoxyacetic acid (2,4-D, lanes 18 and 19). Control treatments are H2O (H, lane 1), 1% ethanol (E, solvent concentration in MJ treatments, lane 2), or 1% DMSO (D, solvent concentration in 2,4D treatments, lane 3). Blots were hybridized with ddPCR fragments indicated at right or with the β-ATPase geneas a loading control probe. Autoradiogram exposure times were optimized for each gene. The signal for C18-1 was enhanced by using the full length cDNA as probe. Labels on left indicate response class.
as §1
The specificity for induction by SA was tested by treating tobacco cells with a range of SA analogs and plant signalling compounds at 0.1 and 1 mM for approximately 2.5 h. […] Among the SA-analogs, acetyl-SA (ASA, aspirin), benzoic acid (BA) and 4-hydroxybenzoic acid (4HBA), responses generally reflected the ability of the analog to substitute for SA in other cellular responses (Yalpani, N. et al., Plant Cell 3: 809-818, 1991, Yang, Y. and Klessig, D. F., Proc. Natl. Acad. Sci. 93, 14972-14977, 1996). […] Several genes, including those for proteinase inhibitors and lipoxygenase (Hildmann, T. et al., Plant Cell 4: 1157-1170, 1992; Melan, M. A. et al., Plant Physiol. 101: 441-450, 1993; Xu, D. et al., Plant Mol. Biol. 22: 573-588, 1993) are known to be under dual regulation by MJ and ABA. A similar mode of regulation may be in effect with C14-1b. the auxin 2,4-D induced several genes including C18-1/EREBP1 and C6-2.

In the case of `O=C(O)c1ccccc1O` [SA, salicylic acid], the “induction of most of the genes at 20 μM SA” value in test [1] (20 μM SA) is recorded as “little or none”. Besides, in test [1] (200 μM SA), the “induction of most of the genes at 200 μM SA” value is on record as “clear induction”. The “G3-2 mRNA levels at 20 μM SA” value in test [2] (20 μM SA) is “comparable to those at 200 μM”. Besides, in test [2] (0.1 and 1 mM, approximately 2.5 h), the “G3-2 induction at 0.1 mM versus 1 mM” value is reported as “equal or greater induction at 0.1 mM versus 1 mM”. In addition, in test [2] (SA time course), the “G3-2 mRNA levels between 2 and 12 h” value is on record as “increased steadily”; the “time before which G3-2 is not detectably activated” value is listed as not below 2 h. Moreover, the “sensitivity of G3-2 to SA” value in test [2] (data not shown) is “similarly sensitive as G8-1”.
